The values below come from US9682140B2, “Ezrin-derived peptides and pharmaceutical compositions thereof” (priority 2016, dated 2017).

Test [1] concerns encephalomyocarditis virus. In words: Antiviral (interferon-inducing) activity in culture of PLC/PRF/5 (Alexander) human hepatoma cell line. The format is cell-based, encephalomyocarditis virus strain Columbia SK-Col-SK. Particulars: for Antiviral efficacy (minimal compound concentration protecting 50% of the cells from death) / Titre of induced interferon (inverse to the maximal dilution protecting 50% of the cells): PLC/PRF/5 (Alexander) human hepatoma cells, 100 LD50 of encephalomyocarditis virus. On the procedure: (§1) In this methodology in vitro, we pretreated different types of cells with the studied peptides, and then the cells were infected with a dose of 100 LD50 of encephalomyocarditis virus. 24 hours after the infection the cytopathic effect of the virus was assessed in order to evaluate protective activity of the tested compound if the latter has the ability to bring the cells to a state, resistant to the virus, which is deadly for cells.
(§2) The lower is the concentration which protects 50% of cells from death due to the infection at a dose of 100 LD50 of encephalomyocarditis virus, the higher is antiviral (interferon-inducing) activity of the tested compound.
PLC/PRF/5 (Alexander) human hepatoma cell line was obtained from Research Institute of Virology named after Ivanovskiy (Moscow). Complete medium for cells culturing was prepared on the basis of MEM Eagle medium supplemented with 10% fetal calf serum (FCS), L-glutamine (300 μg/ml), and penicillin (100 U/ml).
(§3) The peptides were dissolved in distilled water, and then sterilized by passing through filters with pore size 0.2 μm to obtain the stock solutions of 1-2 mg/ml. On day 0, cells were seeded in the wells of 96-well plate in complete culture medium with cell density of 200 thousands of cells in 1 ml. On day 1, serial dilutions of each tested sample were prepared (24 serial dilutions in increments of 2) in triplets in the wells of the 96-well plate. On day 3, all the cultures were infected with a dose of 100 TCID50/ml of encephalomyocarditis virus strain “Columbia SK-Col-SK”. Finally, on day 4, cytopathic effect of the virus was assessed by using Leitz inverted microscope in the presence of different concentrations of the tested peptide or in the cultures without peptide (control).
(§4) Antiviral effect of the drug product was assessed based on minimal concentration thereof protecting 50% of the cells from death caused by encephalomyocarditis virus at a dose of 100 TCID50/ml. Interferon titre (U/ml) was calculated as a value, inverse to the maximal dilution of the drug product, which protected 50% of the cells from death caused by encephalomyocarditis virus at a dose of 100 TCID50/ml.

In test [2] the test system is encephalomyocarditis virus. Briefly: Antiviral (interferon-inducing) activity in culture of Girardi Heart human epithelial cell line. To be noted: for Antiviral efficacy (minimal compound concentration protecting 50% of the cells from death) / Titre of induced interferon (inverse to the maximal dilution protecting 50% of the cells): Girardi Heart epithelial cells, 100 LD50 of encephalomyocarditis virus. The format is cell-based. How it is done:
as §1, §2, §3, §4
The culture of Girardi Heart human epithelial cell line was obtained from Research Institute of Virology named after Ivanovskiy (Moscow). Complete medium for cells culturing, peptides and compositions thereof, as well as assessment method for their antiviral (interferon-inducing) activity were the same as described in the Example 5.

Test [3] deals with encephalomyocarditis virus. Briefly: Antiviral (interferon-inducing) activity in culture of HELA human cervical carcinoma cell line. Particulars: 100 LD50 of encephalomyocarditis virus. The format is cell-based. On the procedure:
as §1, §2, §3, §4
HELA human cervical carcinoma cell line was obtained from Research Institute of Virology named after Ivanovskiy (Moscow). Complete medium for cells culturing, peptides and compositions thereof, as well as assessment method for their antiviral (interferon-inducing) activity were the same as described in the Example 5.

The subject of test [4] is MAPK/ERK signaling pathway. Briefly: Activation of MAPK/ERK signaling pathway in BALB/c mouse fibroblasts (immune blotting of phospho-p44/42 MAPK). The format is cell-based. How it is done:
Peptide […] (SEQ ID No: 1) was obtained as described in Example 1, BALB/c mouse fibroblast were purchased from American Type Culture Collection and propagated in a complete medium consisting of high glucose DMEM supplemented with 10% fetal calf serum, 1 mM sodium pyruvate, 1:50 MEM non-essential amino acids, 2 mM L-glutamine, 10 μg/ml gentamicin and 50 μM β-mercaptoethanol. Cells were grown in 10 cm culture dishes at 5% CO2 and 37° C. Cell passages were made at the 50-60% confluency. For cell detachment, 0.05% trypsin/EDTA was used with following centrifugation (470×g, 15 min) in 10-fold volume of washing medium containing 10% FCS to quench trypsin. Supernatant was discarded and the cell pellet was suspended in 10 ml of complete culture medium, then cell numbers were counted using hemocytometer before cells were used for experiments.
Fibroblasts were cultured in 8-well culture plates, the examined peptide or cytokine TGF-β1 (positive control) solution, or equivalent volume of culture medium (negative control) were added into respective triplicate cultures. Cells were incubated in presence of the peptide […] SEQ ID No: 1 (10 μg/ml) or TGF-β1, or without any effector compound during 1 or 6 hours at 5% C02 and 37° C. At the time points indicated, cell were harvested, washed twice with PBS and lyzed using the cell extraction buffer in the presence of protease inhibitors during 30 min at 4° C. Extracts were cleared by centrifugation (14,000×g, 10 min, 4° C.). Protein concentration was measured using protein assay reagent (Pierce, 23225). Appropriate dilutions of extracts ([…] protein per a track) were then fractionated in 8% SDS-PAGE and then transferred onto PVDF-membrane (Amersham) for immune blotting. Targeted proteins were detected using antibodies specific to phospho-p44/42 MAPK (Cell Signaling, 4370) and GAPDH (Abcam ab8245). Protein bands were visualized and then measured their intensities using ImageJ soft-ware. Data were expressed as a value (pixels per a band) of ERK1, ERK2 or phospho-ERK1 and phospho-ERK2 normalized to a value of respective GAPDH-bands. Mean values+SD were calculated using the data of 3 independent runs.

The mark [5] stands for this setting: 1 hour after activation, peptide 10 μg/ml, TGF-β1 5 ng/ml, negative control 0.1+0.002.
Where [6] appears, read: 1 hour after activation, peptide 10 μg/ml, TGF-β1 5 ng/ml, negative control 0.4+0.01.
[7] abbreviates: 6 hour time point, non-activated cultures 0.1+0.007.
Setting [8] is: 6 hours after activation, negative control 0.1+0.01.

In the case of “NH2_Arg-Glu-Thr-Val-Glu-Arg-Glu-Lys-Glu_COOH (H-RETVEREKE-OH) [HP6-14]”, the “Antiviral efficacy (minimal compound concentration protecting 50% of the cells from death)” value turned out to be 0.78 µg/mL in test [1], 0.006 µg/mL in test [2] and 0.49 µg/mL in test [3]. Also, the “Titre of induced interferon (inverse to the maximal dilution protecting 50% of the cells)” value is on record as 1280 U/ml in test [1], 163 840 U/ml in test [2] and 2048 U/ml in test [3].
“NH2_Gly-Glu-Lys-Lys-Arg-Arg-Glu-Thr-Val-Glu-Arg-Glu-Gly-Gly_COOH (H-GEKKRRETVEREGG-OH) [HP-V2]”: the “Antiviral efficacy (minimal compound concentration protecting 50% of the cells from death)” value in test [1] came out at 0.78 µg/mL; in test [2], 0.0015 µg/mL; in test [3], 7.8 µg/mL. In addition, the entries for the “Titre of induced interferon (inverse to the maximal dilution protecting 50% of the cells)” value in test [1], in test [2] and in test [3] were 1280 U/ml, 655 360 U/ml and 128 U/ml, respectively. For the same substance, the “immunostimulatory activity compared with the activity of HEP-1 peptide” value in test [1] (Table 1, PLC/PRF/5 cells) is on record as 4 times; in test [2] (Table 3, Girardi Heart cells), “the same”. Besides, the “phospho-ERK1 normalized value (band intensity normalized to GAPDH)” value in test [4] (setting [5]) is 0.4+0.02; in test [4] (setting [8]), 0.1+0.006. Moreover, the “phospho-ERK2 normalized value (band intensity normalized to GAPDH)” value in test [4] (setting [6]) is listed as 1.3+0.05; in test [4] (setting [7]), 0.1+0.01.
Take “NH2_Thr-Glu-Lys-Lys-Arg COOH (H-TEKKR-OH) [HP1-5]”: the “Antiviral efficacy (minimal compound concentration protecting 50% of the cells from death)” value turned out to be 1.6 µg/mL in test [1], 0.0015 µg/mL in test [2] and 0.49 µg/mL in test [3]. The “Titre of induced interferon (inverse to the maximal dilution protecting 50% of the cells)” value in test [1] was 640 U/ml; in test [2], 655 360 U/ml; in test [3], 2048 U/ml.
Take “NH2_Thr-Glu-Lys-Lys-Arg-Arg-Glu-Thr-Val-Glu-Arg-Glu-Lys-Glu_COOH (H-TEKKRRETVEREKE-OH) [HEP-1]”: the “Antiviral efficacy (minimal compound concentration protecting 50% of the cells from death)” value stood at 3.0 µg/mL in test [1], 0.0015 µg/mL in test [2] and 3.9 µg/mL in test [3]. Besides, the “Titre of induced interferon (inverse to the maximal dilution protecting 50% of the cells)” value in test [1] is recorded as 320 U/ml; in test [2], 655 360 U/ml; in test [3], 256 U/ml.
Regarding “TGF-β1: cytokine TGF-β1 (positive control)”, the “phospho-ERK1 normalized value (band intensity normalized to GAPDH)” value in test [4] (setting [5]) was 0.5+0.02; in test [4] (setting [8]), 0.3+0.02. The “phospho-ERK2 normalized value (band intensity normalized to GAPDH)” value was 1.9+0.1 in test [4] (setting [6]) and 0.35+0.02 in test [4] (setting [7]).
